Results from PMC3224947, “Inhibition of HIV-1 integrase nuclear import and replication by a peptide bearing integrase putative nuclear localization signal” (Retrovirology, 2009).

Key:
[1] = system: COS-7 cells (nuclear import); assay: Microinjection of FITC-BSA conjugates into COS-7 cells, nuclear import; format: cell-based; details: 37°C, 2 h after injection, fluorescence microscopy (Fig. 3A-E)
From the text: Nuclear import transport substrates
Proteins and peptides used in this work as transport substrates were covalently attached to either fluorescein isothiocyanate-labeled bovine serum albumin (FITC-BSA) or biotinylated BSA (Bb) molecules (Sigma). Sulfosuccinimidyl-4-(N-maleimidomethyl) cyclohexane-1-carboxylate (sulfo-SMCC) was used as the cross-linker to give FITC-BSA-protein/peptide and Bb-protein/peptide conjugates, as described previously.
Microinjection of fluorescently labeled transport substrates
FITC-BSA-IN, FITC-BSA-180-IN, FITC-BSA-152-IN, FITC-BSA-NLS-IN, as well as unlabeled FITC-BSA, were microinjected into the cytoplasm of cultured COS-7 cells as described previously. The CompInject AIS2 automated microinjection system (Cell Biology Trading, Hamburg, Germany) was used following the method developed by Graessmann and Graessman. Cultured mammalian cells were incubated at 37°C for 2 h after injection and observed by fluorescence microscopy.

HIV-1 in TZM-bl cells = assay: MAGI assay, HIV-1 infection of TZM-bl cells (β-galactosidase reporter); format: cell-based; details: TZM-bl cells (Fig. 9A, B); dividing/non-dividing not distinguished
Procedure: HIV-1 titration by multinuclear activation of a galactosidase indicator (MAGI) assay
Quantitative titration of HIV-1 was carried out using the MAGI assay, as described previously. Briefly, TZM-b1 cells were grown in 96-well plates at 10^4 cells/well and incubated for 12 h at 37°C. Peptides were then added and after an additional 2 h of incubation, the cells were infected with 50 μl of serially diluted HIV-1. To obtain cell-cycle arrested cells, 5 μg/ml of aphidicolin was added 2 h before the experiment. Cultured cells were fixed 2 days PI and β-galactosidase was estimated. Blue cells were counted under a light microscope at 200× magnification.

[2] = system: HIV-1 IN (nuclear import); assay: Immunostaining of intracellular localization of IN in stably transfected, cell-cycle arrested HeLaP4/IN-expressing cells; format: cell-based; details: aphidicolin 5 μg/ml arrested HeLaP4/IN cells; 150 μM peptide, 6 h; confocal microscopy (Fig. 1)
Procedure: Localization studies of transfected IN in cultured cells by immunostaining
HeLaP4/IN-expressing cells were grown on chamber slides (Nunc). […] Cells were fixed and immunostained essentially as described previously with several modifications. Briefly, after fixation cells were blocked with 5% (w/v) BSA (IgG free) (Jackson) in PBS for 60 min. […] Cells were washed five times with PBS + 0.05% (v/v) Tween 20. Then the cells were incubated with a second antibody, Cy3-conjugated anti-rabbit antibody (Jackson) (1:200) at room temperature for 60 min followed by five washes with PBS + 0.05% Tween 20. For detection of DNA, cells were stained with DAPI according to the manufacturer's protocol. The slides were prepared with mounting media (Bio-Rad) and immunofluorescent cells were detected with a confocal microscope.

[3] = system: HIV-1 IN (nuclear import); assay: Immunostaining of IN localization in HIV-1-infected HeLaP4 cells; format: cell-based; details: aphidicolin-arrested HeLaP4, 150 μM peptide 2 h, then HIV-1 MOI 25, fixed 10 h PI (Fig. 7B)
Procedure: Localization studies of IN in HIV-1-infected cultured cells by immunostaining
HeLaP4 cells were grown on chamber slides. […] After incubation with the peptides, cells were infected with wild-type HIV-1 at a multiplicity of infection (MOI) of 25. Cells were fixed and stained as described above with the following modifications: fixation was performed at 10 h PI, the first antibody was used at a dilution of 1:50, the second antibody at a dilution of 1:100.

IN-importin α complex = assay: Co-immunoprecipitation of IN and importin α from HIV-1-infected cells; details: HIV-1-infected H9 lymphocytes, 150 μM peptide 2 h prior to infection, harvested 10 h PI (Fig. 7A)
[4] = system: HIV-1 replication in Sup-T1 cells; assay: Time-of-addition assay, viral p24 production in Sup-T1 cells; format: cell-based; details: non-active peptides, NLS-IN and Pen at 62.5 μM in time-of-addition; sentence cites Fig. 9 as a whole
Procedure: Sup-T1 cells were infected with wild-type HIV-1 at a MOI of 2, and the test compounds were added at different time points after infection (0, 2, 4,..., 24 h). Viral p24 production was determined at 48 h PI [67]. Dextran sulfate was tested at 20 μM, AZT at 2 μM, NLS-IN-Pen, NLS-IN and Pen at 62.5 μM, LEDGF 402-411 at 12.5 μM [41].

Substance	nuclear import after microinjection [1]	HIV-1 infection inhibition (HIV-1 in TZM-bl cells)	nuclear import / intracellular localization of IN [2]	intranuclear IN in infected cells [3]	IN-importin α interaction (co-IP) (IN-importin α complex)	inhibition of HIV-1 (Fig. 9) [4]
FITC-BSA: fluorescein isothiocyanate-labeled bovine serum albumin	no nuclear import was observed					
RQIKIWFQNRRMKWKK [Pen]		no inhibition of HIV-1 infection	did not have any effect on nuclear import of IN	some intranuclear fluorescently labeled IN could be observed	neither the SV40-mut-NLS-Pen (or a scrambled NLS-IN [23], not shown) nor the Pen peptide itself promoted dissociation of the IN-importin α complex	Inhibition was not observed
